Test results reported in patent publication US20080081801A1, “PORPHYRIN OXYGEN INFUSION FOR INCREASING CONCENTRATIONS IN TUMOR TISSUES” (priority 2002, published 2008).

System: Ascites hepatoma LY80
Assay: Oxygen partial pressure in tumor tissues of tumor-bearing rats after intra-arterial injection of the sample (phosphorescence quenching, PdPor, OxySpot)
Assay type: in vivo, Donryu rats
Details: oxygen-saturated sample
Protocol: Animals with cancer were prepared by transplanting tumor cells in desired sites of laboratory animals such as, for example, rats, hamsters, rabbits or beagles.
Rats were bred for several days until tumors develop and then subjected to experiments under anesthesia (e.g., using Nembutal, diethyl ether or halothane anesthetic gas). Rats were intubated through the cervical trachea and ventilated under positive pressure by a respirator. A polyethylene catheter was inserted into a left carotid artery so that a distal end of the catheter is located at a position short of a bifurcation of the common iliac artery, and then backward cannulation was carried out to provide an administration rout of sample in the descending aorta.
The oxygen partial pressure in the tumor tissues may be determined by intravenously injecting a phosphorescent probe (palladium coproporphyrin (PdPor)), irradiating light, and monitoring a phosphorescence quenching time with an oxygen partial pressure monitor. PdPor is intravenously injected through a tail vein at 5-20 minutes before administration of the sample. […] The oxygen partial pressure in the tumor site of the right leg was measured at 5 to 30 points in air or an atmosphere containing 99% oxygen with a device for measurement of an oxygen partial pressure (e.g., OxySpot (Trademark) made by Medical System Corp.), and served as controls. […]

bovine serum albumin: serum albumin, injected oxygen-saturated without porphyrin
change in the oxygen partial pressure (PO2) in the tumor tissue: no change
